According to patent US20040242547A1, “Arylazo-substituted imidazole for the treatment of stress urinary incontinence” (priority 2001, published 2004):

Assays:
[1] = system: human lower urinary tract smooth muscle strips (prostatic/urethral); assay: Agonist potency on human lower urinary tract smooth muscle strips (isometric tension, organ bath); assay type: cell-based; details: for EC50 / Emax: human LUT strips; for EC50: cocaine 10 μM, corticosterone 10 μM, propanolol 1 μM present, read-out: pEC50 (increase in developed tension) (converted); for Emax: relative to 100 mM potassium chloride, read-out: maximum response equivalent to % of the response to 100 mM potassium chloride
Procedure: Determinations were made of agonist potency on human LUT and blood vessel smooth muscle. Tissue sources: human lower urinary tract smooth muscle strips (prostatic/urethral) were obtained from patients undergoing transurethral resection of the prostate procedure for benign prostatic hyperplasia. Human mesenteric arteries (500-750 μm internal diameter) were obtained from patients undergoing bowel resection for carcinoma. Tissues were preserved in Krebs-bicarbonate solution at 4° C. from the time of surgery until used in functional experiments within 24 hours. Sections of mesenteric artery (5 mm in length) were set up between stainless steel stirrups after removal of the endothelium by gentle rubbing. Strips of prostatic/urethral smooth muscle (3×10 mm) and the mesenteric arteries were set up under 1 g resting tension in Krebs solution of composition (mM): NaCl 118.4; KCl 4.7; CaCl2 1.9; NaHCO3 25.0; MgSO4 1.2; KH2PO4 1.2; glucose 11.7, gassed with 5% CO2 in O2 and maintained at 37° C. The tension developed by all tissues was measured by means of isometric force transducers (Lectromed UFI 57G sensitivity) and recorded to computer via a Cambridge Electronic Design 1401 analogue to digital converter, using CHART software. Tissues were equilibrated for 60 minutes with several changes of bathing medium prior to starting drug administrations. All experiments were performed in the presence of cocaine (10 μM) and corticosterone (10 μM), to prevent neuronal and extraneuronal uptake of drugs, and propanolol (1 μM), to block B adrenoreceptors. Cumulative concentration-response curves were obtained to 2-[(5-chloro-2-methoxyphenyl)azo]-1H-imidazole, and to noradrenaline for comparison. […] Increases in developed tension to agonist were plotted and individual EC50 values were determined. From these, pEC50 (negative log of the EC50) values were determined for each experiment and where appropriate mean values of these with standard error of the means calculated.

[2] = system: human mesenteric arteries; assay: Agonist potency on human mesenteric artery sections (isometric tension, organ bath); assay type: cell-based; details: for EC50 / mean maximum contraction: human mesenteric arteries; for EC50: endothelium removed, cocaine 10 μM, corticosterone 10 μM, propanolol 1 μM present, read-out: pEC50 (increase in developed tension) (converted); for mean maximum contraction: for the imidazole the maximum occurred at 20 micromolar
Procedure: Determinations were made of agonist potency on human LUT and blood vessel smooth muscle. Tissue sources: human lower urinary tract smooth muscle strips (prostatic/urethral) were obtained from patients undergoing transurethral resection of the prostate procedure for benign prostatic hyperplasia. Human mesenteric arteries (500-750 μm internal diameter) were obtained from patients undergoing bowel resection for carcinoma. Tissues were preserved in Krebs-bicarbonate solution at 4° C. from the time of surgery until used in functional experiments within 24 hours. Sections of mesenteric artery (5 mm in length) were set up between stainless steel stirrups after removal of the endothelium by gentle rubbing. Strips of prostatic/urethral smooth muscle (3×10 mm) and the mesenteric arteries were set up under 1 g resting tension in Krebs solution of composition (mM): NaCl 118.4; KCl 4.7; CaCl2 1.9; NaHCO3 25.0; MgSO4 1.2; KH2PO4 1.2; glucose 11.7, gassed with 5% CO2 in O2 and maintained at 37° C. The tension developed by all tissues was measured by means of isometric force transducers (Lectromed UFI 57G sensitivity) and recorded to computer via a Cambridge Electronic Design 1401 analogue to digital converter, using CHART software. Tissues were equilibrated for 60 minutes with several changes of bathing medium prior to starting drug administrations. All experiments were performed in the presence of cocaine (10 μM) and corticosterone (10 μM), to prevent neuronal and extraneuronal uptake of drugs, and propanolol (1 μM), to block B adrenoreceptors. Cumulative concentration-response curves were obtained to 2-[(5-chloro-2-methoxyphenyl)azo]-1H-imidazole, and to noradrenaline for comparison. For the mesenteric artery preparations following the recording of the final drug response to 2-[(5-chloro-2-methoxyphenyl)azo]-1H-imidazole, a supramaximal concentration of noradrenaline was added as a further test for partial agonism. Increases in developed tension to agonist were plotted and individual EC50 values were determined. From these, pEC50 (negative log of the EC50) values were determined for each experiment and where appropriate mean values of these with standard error of the means calculated.

SMILES | EC50 [1] | Emax [1] | agonist character compared with noradrenaline ([1]; human LUT tissue) | agonist character compared with noradrenaline ([2]; human blood vessels (mesenteric arteries)) | EC50 [2] | mean maximum contraction [2] | mean further increase in tension ([2]; noradrenaline 160-210 μM added after the highest concentration of 2-[(5-chloro-2-methoxyphenyl)azo]-1H-imidazole, n=3)
COc1ccc(Cl)cc1N=Nc1ncc[nH]1 [2-[(5-chloro-2-methoxyphenyl)azo]-1H-imidazole] | 2 µM | 62.5% | full agonist | partial agonist | 5.01 µM | 1.1 ± 0.7 g | –
NC[C@H](O)c1ccc(O)c(O)c1 [Noradrenaline, noradrenaline, reference compound] | 3.98 µM | 63.7 ± 4.8% | – | – | 0.661 µM | 4.22 ± 2.21 g | 2.7 ± 0.9 g
